Experimental data published in patent US9695155B2, “Herbicidal substituted pyrimidinyloxy benzene compounds” (E. I. DU PONT DE NEMOURS AND COMPANY, priority 2013, dated 2017).

What was measured:
wheat [1] = experiment: Test A postemergence; type: in vivo, Triticum aestivum
In short: (§1)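 Greenhouse pot test, loam/sand soil. Formulation: non-phytotoxic solvent mix plus surfactant. Pre: directed spray onto soil after sowing. Post: plants at 1–2 leaf, 2–10 cm. Rated visually vs untreated controls at ~10 d, 0 (no effect) to 100 (complete control).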

Heteranthera limosa = experiment: Test B flooded paddy test; type: in vivo; conditions: Flood, 250 g ai/ha; 0 to 100 scale where 0 is no effect and 100 is complete control
In short: (§2)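 2-leaf stage plants; pots flooded to 3 cm, compound added to paddy water, depth maintained. Greenhouse 13–15 d. Visual rating vs untreated controls, 0 (no effect) to 100 (complete control); dash = no result.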

barnyardgrass [2] = experiment: Test C flooded paddy test; type: in vivo, Echinochloa crus-galli; conditions: Flood, scale 0 to 100 (0 no effect, 100 complete control), 13 to 15 days
Excerpt: (§3) At time of treatment, test pots were flooded to 3 cm above the soil surface, treated by application of test compounds directly to the paddy water, and then maintained at that water depth for the duration of the test. Treated plants and controls were maintained in a greenhouse for 13 to 15 days, after which time all species were compared to controls and visually evaluated. […] A dash (-) response means no test result.

sedge, umbrella [3] = experiment: Test C flooded paddy test; type: in vivo, Cyperus difformis; conditions: Flood, scale 0 to 100 (0 no effect, 100 complete control), 13 to 15 days
Excerpt: as §3

morningglory [4] = experiment: Test A preemergence; type: in vivo, Ipomoea spp.
In short: as §1

large (Lg) crabgrass [5] = experiment: Test A postemergence; type: in vivo, Digitaria sanguinalis
In short: as §1

sedge, umbrella [6] = experiment: Test B flooded paddy test; type: in vivo, Cyperus difformis; conditions: Flood, 250 g ai/ha; 0 to 100 scale where 0 is no effect and 100 is complete control
In short: as §2

large (Lg) crabgrass [7] = experiment: Test A preemergence; type: in vivo, Digitaria sanguinalis
In short: as §1

velvetleaf [8] = experiment: Test A preemergence; type: in vivo, Abutilon theophrasti
In short: as §1

rice [9] = experiment: Test B flooded paddy test; type: in vivo, Oryza sativa; conditions: Flood, 250 g ai/ha; 0 to 100 scale where 0 is no effect and 100 is complete control
In short: as §2

giant foxtail [10] = experiment: Test A preemergence; type: in vivo, Setaria faberii
In short: as §1

corn [11] = experiment: Test A preemergence; type: in vivo, Zea mays
In short: as §1

barnyardgrass [12] = experiment: Test B flooded paddy test; type: in vivo, Echinochloa crus-galli; conditions: Flood, 250 g ai/ha; 0 to 100 scale where 0 is no effect and 100 is complete control
In short: as §2

barnyardgrass [13] = experiment: Test A postemergence; type: in vivo, Echinochloa crus-galli
In short: as §1

pigweed [14] = experiment: Test A postemergence; type: in vivo, Amaranthus retroflexus
In short: as §1

pigweed [15] = experiment: Test A preemergence; type: in vivo, Amaranthus retroflexus
In short: as §1

morningglory [16] = experiment: Test A postemergence; type: in vivo, Ipomoea spp.
In short: as §1

barnyardgrass [17] = experiment: Test A preemergence; type: in vivo, Echinochloa crus-galli
In short: as §1

velvetleaf [18] = experiment: Test A postemergence; type: in vivo, Abutilon theophrasti
In short: as §1

corn [19] = experiment: Test A postemergence; type: in vivo, Zea mays
In short: as §1

rice [20] = experiment: Test C flooded paddy test; type: in vivo, Oryza sativa; conditions: Flood, scale 0 to 100 (0 no effect, 100 complete control), 13 to 15 days
Excerpt: as §3

wheat [21] = experiment: Test A preemergence; type: in vivo, Triticum aestivum
In short: as §1

ducksalad = experiment: Test C flooded paddy test; type: in vivo, Heteranthera limosa; conditions: Flood, scale 0 to 100 (0 no effect, 100 complete control), 13 to 15 days
Excerpt: as §3

giant foxtail [22] = experiment: Test A postemergence; type: in vivo, Setaria faberii
In short: as §1

[23] = 125 g ai/ha, 0 to 100 scale where 0 is no effect and 100 is complete control
[24] = 500 g ai/ha, 0 to 100 scale, 0 no effect, 100 complete control
[25] = 500 g ai/ha, 0 to 100 scale, 0 no effect, 100 complete control, approx. 10 days

Brc1cnc(Oc2ccccc2-n2cc(Br)cn2)nc1 [Compound 8]
Plant response rating, Wheat (wheat [1]; [23]): 0 | Plant response rating, Wheat (wheat [1]; [24]): 20 | Plant response rating, Ducksalad (Heteranthera limosa): 100 | Plant response rating, Barnyardgrass (barnyardgrass [2]; 31 g ai/ha): 0 | Plant response rating, Barnyardgrass (barnyardgrass [2]; 62 g ai/ha): 0 | Plant response rating, Barnyardgrass (barnyardgrass [2]; 125 g ai/ha): 0 | Plant response rating, Barnyardgrass (barnyardgrass [2]; 250 g ai/ha): 0 | Plant response rating, Sedge, Umbrella (sedge, umbrella [3]; 31 g ai/ha): 0 | Plant response rating, Sedge, Umbrella (sedge, umbrella [3]; 62 g ai/ha): 50 | Plant response rating, Sedge, Umbrella (sedge, umbrella [3]; 125 g ai/ha): 75 | Plant response rating, Sedge, Umbrella (sedge, umbrella [3]; 250 g ai/ha): 85 | Morningglory plant response rating (morningglory [4]; [23]): 20 | Morningglory plant response rating (morningglory [4]; [25]): 30 | Plant response rating, Crabgrass, Large (large (Lg) crabgrass [5]; [23]): 50 | Plant response rating, Crabgrass, Large (large (Lg) crabgrass [5]; [24]): 90 | Plant response rating, Sedge, Umbrella (sedge, umbrella [6]): 80 | Crabgrass, Large plant response rating (large (Lg) crabgrass [7]; [23]): 80 | Crabgrass, Large plant response rating (large (Lg) crabgrass [7]; [25]): 100 | Velvetleaf plant response rating (velvetleaf [8]; [23]): 100 | Velvetleaf plant response rating (velvetleaf [8]; [25]): 100 | Plant response rating, Rice (rice [9]): 30 | Foxtail, Giant plant response rating (giant foxtail [10]; [23]): 70 | Foxtail, Giant plant response rating (giant foxtail [10]; [25]): 100 | Corn plant response rating (corn [11]; [23]): 0 | Corn plant response rating (corn [11]; [25]): 0 | Plant response rating, Barnyardgrass (barnyardgrass [12]): 0 | Plant response rating, Barnyardgrass (barnyardgrass [13]; [23]): 30 | Plant response rating, Barnyardgrass (barnyardgrass [13]; [24]): 90 | Plant response rating, Pigweed (pigweed [14]; [23]): 100 | Plant response rating, Pigweed (pigweed [14]; [24]): 100 | Pigweed plant response rating (pigweed [15]; [23]): 90 | Pigweed plant response rating (pigweed [15]; [25]): 100 | Plant response rating, Morningglory (morningglory [16]; [23]): 70 | Plant response rating, Morningglory (morningglory [16]; [24]): 100 | Barnyardgrass plant response rating (barnyardgrass [17]; [23]): 50 | Barnyardgrass plant response rating (barnyardgrass [17]; [25]): 90 | Plant response rating, Velvetleaf (velvetleaf [18]; [23]): 100 | Plant response rating, Velvetleaf (velvetleaf [18]; [24]): 100 | Plant response rating, Corn (corn [19]; [23]): 0 | Plant response rating, Corn (corn [19]; [24]): 30 | Plant response rating, Rice (rice [20]; 31 g ai/ha): 0 | Plant response rating, Rice (rice [20]; 62 g ai/ha): 0 | Plant response rating, Rice (rice [20]; 125 g ai/ha): 10 | Plant response rating, Rice (rice [20]; 250 g ai/ha): 10 | Wheat plant response rating (wheat [21]; [23]): 0 | Wheat plant response rating (wheat [21]; [25]): 0 | Plant response rating, Ducksalad (ducksalad; 31 g ai/ha): 0 | Plant response rating, Ducksalad (ducksalad; 62 g ai/ha): 40 | Plant response rating, Ducksalad (ducksalad; 125 g ai/ha): 50 | Plant response rating, Ducksalad (ducksalad; 250 g ai/ha): 70 | Plant response rating, Foxtail, Giant (giant foxtail [22]; [23]): 50 | Plant response rating, Foxtail, Giant (giant foxtail [22]; [24]): 90
